{"source": "ChEMBL document CHEMBL1909046", "about": "“DrugMatrix in vitro pharmacology data”", "key": {"Glycine receptor": {"target": "Glycine receptor (Rattus norvegicus, UniProt P07727+P20781+P22771+P24524)", "sequence (P22771 whole entry)": "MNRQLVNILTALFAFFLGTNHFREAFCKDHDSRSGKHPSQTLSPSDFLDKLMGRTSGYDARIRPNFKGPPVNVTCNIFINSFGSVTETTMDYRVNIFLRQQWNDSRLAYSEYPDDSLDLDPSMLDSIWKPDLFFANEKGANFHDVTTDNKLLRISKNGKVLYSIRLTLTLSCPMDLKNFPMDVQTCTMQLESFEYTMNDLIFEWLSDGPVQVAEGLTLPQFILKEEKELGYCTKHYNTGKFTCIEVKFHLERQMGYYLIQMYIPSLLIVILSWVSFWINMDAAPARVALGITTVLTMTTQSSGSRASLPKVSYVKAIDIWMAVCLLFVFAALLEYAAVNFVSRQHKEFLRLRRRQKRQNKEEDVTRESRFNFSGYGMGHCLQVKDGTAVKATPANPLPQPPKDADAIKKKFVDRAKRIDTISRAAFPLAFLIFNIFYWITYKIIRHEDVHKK", "sequence (P24524 whole entry)": "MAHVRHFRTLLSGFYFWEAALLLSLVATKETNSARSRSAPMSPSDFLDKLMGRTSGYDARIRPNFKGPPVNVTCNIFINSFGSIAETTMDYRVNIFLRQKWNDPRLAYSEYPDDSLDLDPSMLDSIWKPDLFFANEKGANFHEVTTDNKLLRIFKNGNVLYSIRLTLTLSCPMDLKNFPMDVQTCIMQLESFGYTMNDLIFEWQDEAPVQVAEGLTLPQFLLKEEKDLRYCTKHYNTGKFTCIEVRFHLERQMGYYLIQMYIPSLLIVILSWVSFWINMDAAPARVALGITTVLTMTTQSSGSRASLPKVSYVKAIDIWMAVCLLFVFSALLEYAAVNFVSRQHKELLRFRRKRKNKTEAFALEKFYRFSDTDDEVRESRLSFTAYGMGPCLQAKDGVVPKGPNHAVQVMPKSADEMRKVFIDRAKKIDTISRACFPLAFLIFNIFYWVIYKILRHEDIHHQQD", "sequence (P07727 whole entry)": "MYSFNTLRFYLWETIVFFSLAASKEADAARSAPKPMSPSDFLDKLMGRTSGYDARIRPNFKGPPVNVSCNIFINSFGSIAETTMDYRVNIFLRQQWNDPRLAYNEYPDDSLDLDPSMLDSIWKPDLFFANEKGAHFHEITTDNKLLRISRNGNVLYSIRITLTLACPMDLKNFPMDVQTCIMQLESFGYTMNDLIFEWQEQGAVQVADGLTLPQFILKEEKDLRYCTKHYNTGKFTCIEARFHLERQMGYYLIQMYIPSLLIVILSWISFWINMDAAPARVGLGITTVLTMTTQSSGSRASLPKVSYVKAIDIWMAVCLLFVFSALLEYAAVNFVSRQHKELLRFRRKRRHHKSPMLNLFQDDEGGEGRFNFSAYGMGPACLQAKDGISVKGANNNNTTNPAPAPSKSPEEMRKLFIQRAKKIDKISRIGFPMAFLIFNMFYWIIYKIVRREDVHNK", "sequence (P20781 whole entry)": "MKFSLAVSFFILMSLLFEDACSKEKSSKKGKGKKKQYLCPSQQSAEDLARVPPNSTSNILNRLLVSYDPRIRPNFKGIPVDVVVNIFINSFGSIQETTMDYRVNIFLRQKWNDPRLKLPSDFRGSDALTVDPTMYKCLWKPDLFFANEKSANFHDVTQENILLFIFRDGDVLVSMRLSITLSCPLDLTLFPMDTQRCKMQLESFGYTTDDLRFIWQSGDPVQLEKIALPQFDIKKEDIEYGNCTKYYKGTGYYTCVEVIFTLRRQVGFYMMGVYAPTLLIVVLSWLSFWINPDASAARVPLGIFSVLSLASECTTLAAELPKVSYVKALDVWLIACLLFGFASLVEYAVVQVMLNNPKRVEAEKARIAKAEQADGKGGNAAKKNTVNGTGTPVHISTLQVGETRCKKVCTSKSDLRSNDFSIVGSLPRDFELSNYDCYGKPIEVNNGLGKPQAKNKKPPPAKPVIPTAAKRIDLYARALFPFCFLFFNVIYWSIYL", "assay_type": "cell membranes, Wistar, Spinal cord, Membrane"}, "Androgen receptor": {"target": "T1, Androgen receptor (Rattus norvegicus, UniProt P15207)", "T1 sequence (P15207 whole entry)": "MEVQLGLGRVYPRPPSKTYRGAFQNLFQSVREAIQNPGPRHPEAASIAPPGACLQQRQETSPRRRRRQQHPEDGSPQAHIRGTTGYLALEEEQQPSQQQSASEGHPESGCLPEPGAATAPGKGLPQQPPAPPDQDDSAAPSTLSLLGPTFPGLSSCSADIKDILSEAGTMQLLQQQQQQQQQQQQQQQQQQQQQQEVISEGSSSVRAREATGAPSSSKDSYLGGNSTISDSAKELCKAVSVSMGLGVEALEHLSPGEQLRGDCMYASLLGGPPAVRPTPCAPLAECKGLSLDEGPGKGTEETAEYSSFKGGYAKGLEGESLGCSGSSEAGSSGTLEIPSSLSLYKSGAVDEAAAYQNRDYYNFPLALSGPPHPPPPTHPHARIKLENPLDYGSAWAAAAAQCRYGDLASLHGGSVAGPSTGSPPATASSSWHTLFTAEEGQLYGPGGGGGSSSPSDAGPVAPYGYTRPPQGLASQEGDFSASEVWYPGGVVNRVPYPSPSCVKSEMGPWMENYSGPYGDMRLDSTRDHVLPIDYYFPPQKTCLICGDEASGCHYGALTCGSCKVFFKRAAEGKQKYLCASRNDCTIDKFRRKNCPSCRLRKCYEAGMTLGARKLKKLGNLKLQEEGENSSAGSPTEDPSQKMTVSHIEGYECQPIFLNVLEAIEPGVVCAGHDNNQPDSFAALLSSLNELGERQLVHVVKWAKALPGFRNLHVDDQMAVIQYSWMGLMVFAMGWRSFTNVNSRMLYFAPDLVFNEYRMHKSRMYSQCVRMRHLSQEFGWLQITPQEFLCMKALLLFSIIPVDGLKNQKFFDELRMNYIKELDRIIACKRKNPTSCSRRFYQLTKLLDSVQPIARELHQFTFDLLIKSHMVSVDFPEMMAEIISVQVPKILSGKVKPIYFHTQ"}}}
{"smiles": "CC[C@H](C)[C@H]1O[C@]2(C=C[C@@H]1C)C[C@@H]1C[C@@H](C/C=C(\\C)[C@@H](O[C@H]3C[C@H](OC)[C@@H](O[C@H]4C[C@H](OC)[C@@H](O)[C@H](C)O4)[C@H](C)O3)[C@@H](C)/C=C/C=C3\\CO[C@@H]4[C@H](O)C(C)=C[C@@H](C(=O)O1)[C@]34O)O2.CO[C@H]1C[C@H](O[C@H]2[C@H](C)O[C@@H](O[C@@H]3/C(C)=C/C[C@@H]4C[C@@H](C[C@]5(C=C[C@H](C)[C@@H](C(C)C)O5)O4)OC(=O)[C@@H]4C=C(C)[C@@H](O)[C@H]5OC/C(=C\\C=C\\[C@@H]3C)[C@]54O)C[C@@H]2OC)O[C@@H](C)[C@@H]1O", "note": "[ABAMECTIN]", "values": [{"measurement": "IC50", "setting": "Glycine receptor", "value": 132, "unit": "nM"}, {"measurement": "Ki", "setting": "Glycine receptor", "value": 75, "unit": "nM"}]}
{"smiles": "CCC(=O)O[C@]1(C(=O)CCl)[C@@H](C)C[C@H]2[C@@H]3CCC4=CC(=O)C=C[C@]4(C)[C@@]3(F)[C@@H](O)C[C@@]21C", "note": "[CLOBETASOL PROPIONATE]", "values": [{"measurement": "IC50", "setting": "Androgen receptor", "value": 3.78, "unit": "µM"}, {"measurement": "Ki", "setting": "Androgen receptor", "value": 2520, "unit": "nM"}]}
{"smiles": "Oc1c(Cl)cc(Cl)c(Cl)c1Cc1c(O)c(Cl)cc(Cl)c1Cl", "note": "[HEXACHLOROPHENE]", "values": [{"measurement": "IC50", "setting": "Androgen receptor", "value": 4.98, "unit": "µM"}, {"measurement": "Ki", "setting": "Androgen receptor", "value": 3320, "unit": "nM"}]}
